In US8518968B2, “Hydrazone and diacyl hydrazine compounds and methods of use” (The United States of America, as represented by the …, priority 2009, dated 2013):
Read-outs that look alike come from different tables or passages of the source.

How the values were obtained:
JEKO-1 cells [1] = tested on: JEKO-1 cells
ATF3, ATF4, NOXA = assay: Immunoblot of ER stress markers, NOXA, ubiquitin and histone H2A in JEKO-1 cells; format: cell-based; settings: for expression level of ATF3, ATF4 and NOXA: 8 hrs
GFPμ = assay: Stabilization of soluble p97 substrate GFPμ in 293T cells; format: cell-based; settings: 10 μM
Method: The experiments are performed as described above for TCRα-YFP, except that 293 T cells stably expressing GFP are used.

p97 [2] = target: T1, p97 (Homo sapiens, UniProt P55072); assay: Limited trypsin digestion of purified p97; settings: purified p97 pre-incubated with compound
Method: Sensitivity of p97 to limited trypsin digestion in the presence and absence of EerI was tested to determine whether binding of EerI to p97 could alter p97 conformation. The purified p97 protein (1.5 μg) was incubated at in a buffer containing 200 ng trypsin in 50 μl volume. Samples were taken out at different time points and mixed with the Laemmli buffer before SDS-PAGE and silver staining analyses.

293T cells = assay: Whole genome array gene expression in 293T cells; format: cell-based, human; settings: 10 μM, 10 h
Method: To further confirm that both EerI and 5-NA can influence p97 function in cells, the gene expression pattern of EerI-treated cells is compared to that of 5-NA-treated cells using whole genome array hybridization. […] These studies are performed in 293T cells because they are highly transfectable, making them well suited for genetic manipulation by siRNA. Cells were treated with EerI, CBU-028, or 5-NA each at 10 μM in duplicates for 10 h. Total RNA was extracted using TRIzol reagent (Invitrogen, Carlsbad, Calif.), and subsequently purified using an RNeasy MinElute Cleanup kit (QIAGEN, Valencia, Calif.). For array hybridization, RNA samples were processed and analyzed by The National Institute of Diabetes and Digestive and Kidney Diseases (NIDDK) Microarray Core Facility. The Affymetrix gene expression analysis array for the human HG-U133A—2—0 was used (Affymetrix). The microarray signals were analyzed using the Affymetrix RMA algorithm. […] To determine specific pathways, gene pathway analysis were conducted using software from Genego, Inc., using the statistical significant ANOVA gene list (p<0.05, fold change >1.5) represented on the chip. Microarray data is MIAME compliant and that the raw data has been deposited in the Gene Expression Omnibus (GEO) database (accession no. GSE23849).

[3] = tested on: primary chronic lymphocytic leukemia (CLL) cells or normal peripheral blood mononuclear cells (PBMC); assay: Cytotoxic activity against primary cells (MTT); format: cell-based; settings: 5×10e6 cells/ml, 48 hrs
Method: The cytotoxic activity of CBU-028 or EERI against primary cells is determined as a function of concentration. Cell viability of primary chronic lymphocytic leukemia (CLL) cells or normal peripheral blood mononuclear cells (PBMC) at a concentration of 5×10e6 cells/ml is determined after treatment with CBU-028 or EERI for 48 hrs in triplicates. Viability is determined using the MTT assay, as described previously, with data normalized to the untreated control.

p97 ATPase = p97 ATPase (Homo sapiens, UniProt P55072); assay: In vitro ATPase activity of p97; format: biochemical; settings: data not shown
Method: To understand how EerI binding might affect p97 function, in vitro ATPase activity of p97 in the presence of EerI was measured. No effect of EerI on the p97 ATPase activity was found (data not shown).

membrane associated p97 = target: T2, membrane associated p97 (Homo sapiens, UniProt P55072); assay: Membrane/cytosol fractionation and p97 immunoblot in 293T cells; format: cell-based; settings: 10 μM, 6 hr, membrane and cytosol fractions
T2 construct: endogenous in cells; host or cells: 293T cells
Method: Cells were fractionated into membrane and cytosol fractions. Proteins extracted from these fractions were analyzed by immunoblotting with antibodies to p97, E1, and Sec61β, and ER-resident protein as shown in FIG. 2 e.

[4] = tested on: JEKO-1 cells stably transfected with shRNAs to luciferase or NOXA; assay: Effect of NOXA shRNA on cytotoxicity in JEKO-1 cells (MTT); format: cell-based; settings: JEKO-1 shLuc vs shNoxa, 24 hours
Method: The effect of NOXA on cytotoxicity of CBU-028, EERI, or bortezomib is determined. FIG. 4 presents graphs comparing CBU-028, EERI, and bortezomib with respect to percent cell viability as a function of concentration, measured using JEKO-1 cells stably transfected with shRNAs to luciferase (shLuc, control, ▪) or NOXA (shNoxa, ◯, sequence: [NT]) after treatment with the compound for 24 hrs, with viability determined with MTT as described above and normalized to the untreated control.

TCRα-YFP = assay: Stabilization of ERAD substrate TCRα-YFP in 293T cells; format: cell-based; settings: 293T cells stably expressing TCRα-YFP, 10 μM (10 mM in method), 10 h
Method: 293T cells stably expressing TCRα-YFP are treated with the indicated compounds ([…]) or as a control with DMSO for 10 h. Cells are lysed in RIPA buffer (50 mM Tris, pH 7.5, 1% NP40, 0.1% SDS, 0.5% sodium deoxycholate, 150 mM sodium chloride, 2 mM EDTA and a protease inhibitor cocktail). TCRα-YFP is immunoprecipitated from the cell extract using an anti-green fluorescent protein (GFP) antibody. The precipitated material is analyzed by SDS-PAGE and immunoblotting with antibodies against uUb and GFP. The whole cell extracts are also analyzed by SDS-PAGE and immunoblotting with antibodies against p. 97.

[5] = target: T3, recombinant wild type p97 (Homo sapiens, UniProt P55072); assay: Surface plasmon resonance binding to recombinant p97; settings: SPR, 25° C., recombinant p97 purified from E. coli; read-out: estimated Kd
T3 construct: made in house; host or cells: E. coli
Method: The strength of EerI binding to recombinant p97 purified from E. coli was tested using surface plasma resonance (SPR). Surface plasmon resonance interaction experiments were carried out at 25° C. on a Biacore T100 system (GE healthcare). […] Briefly, the carboxymethyl group of dextran was activated with N-ethyl-N′-(3-dimethylaminopropyl)carbodiimide (EDC) and N-hydroxysuccinimide (NHS). Then, p97 in a 10 mM sodium acetate (pH 4.5) buffer was injected at a flow rate of 10 μl/min with 2 min contact time and immobilized at a level of ˜8,000 RU. Any remaining reactive sites in the flow cell were blocked by ethanolamine. The drug association and dissociation were monitored at a flow rate of […] with the analyte concentration ranging from 3.125 μM to 50 μM in a buffer containing 10 mM HEPES (pH 7.4), 150 mM NaCl, 0.005% v/v Surfactant P20. Regeneration of the chip was achieved by extended washing with the analyte buffer. SPR signal was normalized using a reference flow cell containing no p97. […] The Rmax was then calculated, and the binding relative to the Rmax from three independent experiments was averaged. […]
The affinity of CBU-028, EERI, and compound 5138380 to purified p97 is measured by surface plasmon resonance (SPR). […] Association and dissociation of the compounds are monitored at a flow rate of 20 μL/min at concentrations ranging from 1.6 μM to 100 μM. […]

JEKO-1 cells [6] = assay: cells; settings: Homo sapiens, JeKo-1, 48 h, JEKO-1 cells, incubated 2 days, MTT, four parameter logistic fit
CLL cells = assay: Synergy of CBU-028 with bortezomib against CLL cells (MTT); format: cell-based; settings: fixed molar relation 1:2000 (BZM:CBU-028), 48 hours
Method: FIG. 6. […] To test for synergy between BZM and CBU-028, CLL cells were incubated in-vitro to increasing concentrations of each compound individually as well as to a combination of both drugs. The combination was tested at a fixed molar relation of 1:2000, e.g. 4 nM BZM was combined with 8 uM CBU-028. 5×10^6 cells/mL were incubated for 48 hours and cell viability was measured with MTT. Synergy is found where the effect of the combination of the two compounds exceeds the additive effect of each compound separately. The left graph shown the result of a representative experiment (CLL—4235) across all concentrations tested. The graph on the right summarizes the data for 7 individual CLL patients.

[7] = target: N-ethylmaleimide-sensitive factor (NSF) (Homo sapiens, UniProt P46459); assay: Avidin bead pull-down of NSF with immobilized B-NFC; format: binding; settings: avidin beads
p97 [8] = target: T1, p97; assay: Avidin bead pull-down of p97 with immobilized B-NFC; format: binding; settings: monomeric avidin beads, biotin beads as negative control
heat shock protein Hsp70 = assay: Avidin bead pull-down of Hsp70 with immobilized B-NFC; format: binding; settings: avidin beads
[9] = tested on: p97 mutants (p97ΔN, p97ΔD2); assay: Avidin bead pull-down of p97 mutants with immobilized B-NFC; format: binding; settings: p97ΔN or p97ΔD2, avidin beads
Sequence of p97 mutants (p97ΔN, p97ΔD2) (P55072 209-458 limits assumed, stated change not applied): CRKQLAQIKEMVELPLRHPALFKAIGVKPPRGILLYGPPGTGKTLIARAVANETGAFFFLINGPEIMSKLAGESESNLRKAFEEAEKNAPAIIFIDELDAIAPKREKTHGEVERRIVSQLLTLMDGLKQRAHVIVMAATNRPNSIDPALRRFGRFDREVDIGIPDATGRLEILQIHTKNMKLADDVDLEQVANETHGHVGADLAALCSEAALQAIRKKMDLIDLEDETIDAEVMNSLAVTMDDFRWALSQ

T1 sequence (P55072 whole entry): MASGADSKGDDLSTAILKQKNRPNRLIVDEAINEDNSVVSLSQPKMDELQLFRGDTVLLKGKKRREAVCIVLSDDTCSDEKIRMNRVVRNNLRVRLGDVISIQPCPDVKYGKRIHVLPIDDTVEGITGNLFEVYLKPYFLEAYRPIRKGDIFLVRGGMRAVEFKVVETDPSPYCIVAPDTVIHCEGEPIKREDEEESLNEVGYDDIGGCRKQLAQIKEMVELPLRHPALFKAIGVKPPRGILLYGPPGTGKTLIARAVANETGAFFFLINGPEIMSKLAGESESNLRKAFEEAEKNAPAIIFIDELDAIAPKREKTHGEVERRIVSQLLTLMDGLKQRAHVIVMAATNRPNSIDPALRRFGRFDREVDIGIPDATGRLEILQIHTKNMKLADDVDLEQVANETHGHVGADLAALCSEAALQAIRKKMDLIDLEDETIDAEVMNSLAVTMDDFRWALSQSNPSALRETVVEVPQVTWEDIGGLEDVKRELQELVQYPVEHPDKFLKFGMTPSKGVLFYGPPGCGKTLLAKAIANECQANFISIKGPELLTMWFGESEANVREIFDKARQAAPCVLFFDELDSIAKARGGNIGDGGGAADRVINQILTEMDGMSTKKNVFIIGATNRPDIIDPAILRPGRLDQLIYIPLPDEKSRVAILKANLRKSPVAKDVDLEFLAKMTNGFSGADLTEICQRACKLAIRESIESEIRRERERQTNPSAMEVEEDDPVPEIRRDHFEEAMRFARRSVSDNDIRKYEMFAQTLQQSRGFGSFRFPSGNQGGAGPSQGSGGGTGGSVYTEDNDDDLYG
Sequence of N-ethylmaleimide-sensitive factor (NSF) (P46459 whole entry, species assumed): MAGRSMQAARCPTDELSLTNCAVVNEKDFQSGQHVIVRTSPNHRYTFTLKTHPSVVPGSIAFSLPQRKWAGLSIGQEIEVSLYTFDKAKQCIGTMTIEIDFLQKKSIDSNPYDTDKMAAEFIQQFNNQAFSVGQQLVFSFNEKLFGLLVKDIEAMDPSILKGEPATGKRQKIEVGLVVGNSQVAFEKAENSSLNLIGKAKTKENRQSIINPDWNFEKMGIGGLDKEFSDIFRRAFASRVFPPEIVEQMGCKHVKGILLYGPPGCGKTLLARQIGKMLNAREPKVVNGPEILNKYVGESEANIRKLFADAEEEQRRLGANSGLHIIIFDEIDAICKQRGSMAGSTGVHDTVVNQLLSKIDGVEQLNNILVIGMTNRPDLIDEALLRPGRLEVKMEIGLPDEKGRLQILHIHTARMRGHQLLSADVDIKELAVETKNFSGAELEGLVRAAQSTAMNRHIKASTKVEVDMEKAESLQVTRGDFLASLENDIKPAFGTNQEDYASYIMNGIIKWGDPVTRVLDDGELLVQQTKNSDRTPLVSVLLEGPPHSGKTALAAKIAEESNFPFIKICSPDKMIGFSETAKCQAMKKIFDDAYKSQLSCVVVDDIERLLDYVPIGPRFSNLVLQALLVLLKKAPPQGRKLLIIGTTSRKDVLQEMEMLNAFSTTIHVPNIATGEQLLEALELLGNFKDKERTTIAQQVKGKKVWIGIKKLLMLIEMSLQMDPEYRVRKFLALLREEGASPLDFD
T2 sequence (P55072 2-806 limits assumed): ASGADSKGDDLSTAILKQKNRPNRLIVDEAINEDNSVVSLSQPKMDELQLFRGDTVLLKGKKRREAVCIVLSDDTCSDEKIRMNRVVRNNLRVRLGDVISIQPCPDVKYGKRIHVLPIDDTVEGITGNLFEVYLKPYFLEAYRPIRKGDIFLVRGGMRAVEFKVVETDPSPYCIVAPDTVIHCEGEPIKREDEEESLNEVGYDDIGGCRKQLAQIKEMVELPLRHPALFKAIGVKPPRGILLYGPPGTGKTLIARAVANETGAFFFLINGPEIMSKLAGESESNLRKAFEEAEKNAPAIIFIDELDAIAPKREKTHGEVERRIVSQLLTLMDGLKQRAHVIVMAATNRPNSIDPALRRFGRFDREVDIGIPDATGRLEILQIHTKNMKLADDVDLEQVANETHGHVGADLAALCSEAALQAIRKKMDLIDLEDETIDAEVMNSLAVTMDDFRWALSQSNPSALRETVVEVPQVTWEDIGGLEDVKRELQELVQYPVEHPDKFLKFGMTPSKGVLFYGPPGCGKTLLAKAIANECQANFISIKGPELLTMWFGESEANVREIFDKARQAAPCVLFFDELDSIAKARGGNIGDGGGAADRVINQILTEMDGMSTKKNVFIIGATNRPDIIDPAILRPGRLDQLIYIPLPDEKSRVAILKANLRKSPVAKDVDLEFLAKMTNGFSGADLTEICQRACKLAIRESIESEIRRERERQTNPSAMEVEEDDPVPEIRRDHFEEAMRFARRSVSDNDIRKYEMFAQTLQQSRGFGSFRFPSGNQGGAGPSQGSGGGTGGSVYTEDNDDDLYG
Sequence of p97 ATPase (P55072 whole entry): as the sequence (P55072 whole entry) above
T3 sequence (P55072 whole entry): as above

For `CC1(C)C(N(O)C(=O)Nc2ccc(C(F)(F)F)cc2)N(c2ccc(Cl)cc2)C(=O)N1CC(=O)N/N=C/C=C/c1ccc([N+](=O)[O-])o1` (stereo not shown) [CBU-003], the IC50 (JEKO-1 cells [1]; JEKO-1 cells, incubated 2 days, MTT, four parameter logistic fit) was 3.5 µM, the “expression level of ATF3, ATF4 and NOXA” value (ATF3, ATF4, NOXA; 10 μM) was “comparable to that present after treatment with EERI” and the “stabilization of soluble p97 substrate GFPμ” value (GFPμ) was “stabilize the soluble p97 substrate GFPμ in polyubiquitinated forms”. The “sensitivity of p97 to limited trypsin digestion” value (p97 [2]) was “caused a delay in the proteolysis of two p97 fragments by trypsin”, the “number of genes up- or down-regulated by at least 2-fold by both EerI and 5-NA” value (293T cells) was 29 genes and the “number of genes up- or down-regulated by at least 2-fold only by this compound” value (293T cells) was 25 genes. The “sensitivity of PBMC compared with CLL cells” value [3] was “PBMC are less sensitive”, the “effect on p97 ATPase activity” value (p97 ATPase) was “No effect” and the “location of slow migrating (oligomerized) p97 species induced by compound” value (membrane associated p97) was “primarily in the membrane fraction, not in the cytosol fraction”. The “requirement of NOXA for cytotoxicity” value [4] was “Noxa is equally required”, the “stabilization of ERAD substrate TCRα-YFP” value (TCRα-YFP) was “stabilize the ERAD substrate TCRα-YFP in polyubiquitinated forms” and the Kd [5] was 5 to 10 µM.
For `O=C(N/N=C/C=C/c1ccc([N+](=O)[O-])o1)c1cc2ccccc2cc1O` [CBU-028, (E)-3-hydroxy-N′-((E)-3-(5-nitrofuran-2-yl)allylidene)-2-naphthohydrazide], the IC50 (JEKO-1 cells [6]) was 3 µM, the NOXA protein level (ATF3, ATF4, NOXA; 10 μM, time course) was “upregulates NOXA protein level” and the “expression of ER stress markers ATF3 and ATF4” value (ATF3, ATF4, NOXA; 10 μM, time course) was “induces expression of the ER stress markers ATF3 and ATF4”. For the same compound, the polyubiquitinated proteins (ATF3, ATF4, NOXA; 10 μM, time course) was “causes accumulation of polyubiquitinated proteins”, the “ubiquitinated histone H2A” value (ATF3, ATF4, NOXA; 10 μM, time course) was “downregulates ubiquitinated histone H2A” and the “stabilization of soluble p97 substrate GFPμ” value (GFPμ) was “stabilize the soluble p97 substrate GFPμ in polyubiquitinated forms”. The “sensitivity of PBMC compared with CLL cells” value [3] was “PBMC are less sensitive”, the “requirement of NOXA for cytotoxicity” value [4] was “Noxa is equally required” and the synergy with bortezomib (CLL cells) was “Synergizes with Bortezomib”. The “stabilization of ERAD substrate TCRα-YFP” value (TCRα-YFP) was “stabilize the ERAD substrate TCRα-YFP in polyubiquitinated forms”.
`O=C(CCCC[C@@H]1SCC2NC(=O)NC21)N/N=C/C=C/c1ccc([N+](=O)[O-])o1` (stereo partly drawn) [CBU-032, (E)-N′-((E)-3-(5-nitrofuran-2-yl)allylidene)-5-((4S)-2-oxohexahydro-1H-thieno[3,4-d]imidazol-4-yl)pentanehydrazide] was tested, and the IC50 (JEKO-1 cells [6]) was 25 µM, the “binding of NSF to immobilized compound” value [7] was “neither the heat shock protein Hsp70, nor the homologous AAA ATPase, N-ethylmaleimide-sensitive factor (NSF), showed significant binding” and the “precipitation of p97 by immobilized compound” value (p97 [8]) was “consistently precipitated more p97, than biotin”. The “binding of Hsp70 to immobilized compound” value (heat shock protein Hsp70) was “neither the heat shock protein Hsp70, nor the homologous AAA ATPase, N-ethylmaleimide-sensitive factor (NSF), showed significant binding”.
In the case of 5-nitrofuryl-acrolein, the “cell viability / cytotoxic activity (in words)” value (JEKO-1 cells [1]) is reported as “cytotoxic activity at a concentration lower than that shown by EERI”, the “expression level of ATF3, ATF4 and NOXA” value (ATF3, ATF4, NOXA; 2.5 μM) is reported as “comparable to that present after treatment with EERI” and the “number of genes up- or down-regulated by at least 2-fold by both EerI and 5-NA” value (293T cells) is reported as 29 genes. The “number of genes up- or down-regulated by at least 2-fold only by this compound” value (293T cells) was 306 genes and the “binding of p97 mutants to immobilized compound” value [9] was “also bound”.
